Experimental data published in patent US20250051419A1, “POLYPEPTIDE MODULATORS” (Georgiamune Inc., priority 2021, published 2025).

Tests used:
PD-1 = target: T1, PD-1 (Mus musculus, UniProt Q02242); assay: Immunoprecipitation of PD-1 and Western blot of PD-1 bound ITK and SHP2; type: cell-based; settings: pre-activated primary mouse CD4 T cells, PD-1 immune-precipitated 5 minutes after treatment, Western blot, compared to control Ab
T1 construct: endogenous in cells
T1 sequence (Q02242 25-288): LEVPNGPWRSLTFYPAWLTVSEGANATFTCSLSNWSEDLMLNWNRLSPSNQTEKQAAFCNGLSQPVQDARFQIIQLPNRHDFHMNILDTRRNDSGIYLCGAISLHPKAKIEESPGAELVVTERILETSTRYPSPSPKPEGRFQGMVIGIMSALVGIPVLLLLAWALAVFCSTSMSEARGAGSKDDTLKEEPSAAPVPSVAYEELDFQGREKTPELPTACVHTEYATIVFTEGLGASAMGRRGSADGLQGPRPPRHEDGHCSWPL
Method: FIGS. 4 and 5 show the modulation of ITK and its effects on immune response. […] However, when there is more ITK than SHP2, a stimulatory signal was generated. When there is the same amount of ITK and SHP2, the immune response was either inhibitory or activating. […] Thus, an activator of ITK would have the effect of enhancing an immune response and an inhibitor of ITK can suppress the immune response. […] PD-1 was immune-precipitated with beads 5 minutes after pre-activated primary mouse CD4 T cells were treated with PD-L1-IgG, PD-L2-IgG or anti-PD-1 mouse blocking antibody (clone RMP1-14).

human CD4 T cells = assay: Flow cytometry of Tcm and Tte after PD-L2-IgG treatment of stimulated T cells; type: cell-based; settings: 25 μg/mL, 48 hours after treatment, vs untreated, p<0.05
Method: After 72 hours, the cells were treated with PD-L2-IgG at concentration of 25 μg/mL. Control wells were left untreated. Forty-eight hours after treatment, the cells were collected, washed and stained with the fluorophore labeled antibodies, and analyzed by flow cytometry. Tom were defined as CD45RO^high/CD62L^high/CD45RA^low. Exhausted T cells or terminal effector T cells (“Tte”) were defined as CD45RO^low/CD62L^low/CD45RA^high.

- ITK/SHP2 ratio (PD-1 bound ITK and SHP2) (PD-1): increased
Substance: PD-L2-IgG: PD-L2 fused to IgG, used to treat T cells; sequence not stated at the place
- Tcm (CD45RO high/CD62L high/CD45RA low) (human CD4 T cells): significant increase
- Tte (exhausted or terminal effector T cells, CD45RO low/CD62L low/CD45RA high) (human CD4 T cells): significant decrease
